Source: US20150328249A1, “MODULATION OF MYOFIBER REPAIR BY ANTI-MYOSTATIN STRATEGIES AND/OR PPAR GAMMA LIGANDS, ALONE OR IN COMBINATION WITH STEM CELLS, FOR THE THERAPY OF CRITICAL LIMB ISCHEMIA AND OTHER ISCHEMIC PROCESSES AFFECTING THE SKELETAL MUSCLE” (LOS ANGELES BIOMEDICAL RESEARCH INSTITUTE AT HARBOR-UCLA …, priority 2012, published 2015)

Assays:
[1] = tested on: db/db diabetic mice; experiment: CLI induced by ULFA in db/db diabetic mice, treated with MDSC and/or molsidomine; format: in vivo; settings: 3 weeks
Description: CLI was induced by ULFA in db/db diabetic mice and treated as follows (n=8/group), for studying the effect of a long-acting NO donor, molsidomine: 1) Untreated (UT): vehicle; 2) MDSC (SC): MDSC into gastrocnemius; 3) MDSC-molsidomine (SC+Mol): as #2, and IP molsidomine (5 mg/kg/day); 4) Molsidomine (Mol) as in #3, no MDSC. Non-diabetic non-ULFA untreated (ND-UT) mice were controls.
At 3 weeks after initiating treatment, mortality, leg preservation, and limb loss/motion/ischemia were determined. Stem cell, myogenic, angiogenic, lipofibrosis, and neurogenesis markers were assayed in muscle tissue by quantitative histochemistry and immunohisto-chemistry and western blot.

[2] = tested on: rat models for insulin resistance and T2DM; experiment: Low oral dose pioglitazone in rat models for insulin resistance and T2DM; format: in vivo

Compound	follistatin expression in the skeletal muscle [1]	stem cell number, expression of stem cell marker nuclear Oct 4a in the skeletal muscle ([1]; gastrocnemius of ischemic leg, quantitative western blot)	number of central nuclei (early stage of myofiber repair) ([1]; hematoxylin-eosin histochemistry)	fat infiltration in the skeletal muscle (Oil Red O) ([1]; quantitative histochemistry)	fibrosis, collagen deposition in the skeletal muscle (Masson trichrome) ([1]; quantitative histochemistry)	vascular endothelial growth factor (VEGF) expression in the skeletal muscle (angiogenesis) ([1]; quantitative western blot)	vascular endothelium, CD-31 expression in the skeletal muscle ([1]; quantitative western blot)	vascular endothelium, von Willebrandt factor expression in the skeletal muscle ([1]; quantitative western blot)	vascular smooth muscle marker calponin in the skeletal muscle ([1]; quantitative western blot)	side effects ([2]; glycemia-normalizing dose of 12 mg/kg/day)	body weight ([2]; low oral dose 0.6 mg/kg/day)	glycemia ([2]; low oral dose 0.6 mg/kg/day) [mg/dL]
CCOC(=O)[N-]c1cn(N2CCOCC2)n[o+]1 [molsidomine]	decrease	reduced this effect	slightly inhibitory	did not reduce	did not exert this noxious effect	also angiogenic	increase	increase	abolished the effect			
CCc1ccc(CCOc2ccc(CC3SC(=O)NC3=O)cc2)nc1 (stereo not drawn) [pioglitazone]										obesity and fat infiltration in the tissues	does not exert glycemic control or increase body weight	250 to 300
